Consider one compound from US5763476A, “Sublingual or buccal pharmaceutical composition” (priority 1994, dated 1998).

One series deals with human volunteers. Kind of series: Phase I clinical studies, peroral administration. It is filed as in vivo.
Series [1] is described as follows: Cardiovascular side effects on sublingual or buccal administration. Format: in vivo.
Series [2] is described as follows: Absorption from aqueous compositions kept under the tongue or in the mouth. It is filed as in vivo. Conditions: aqueous compositions kept under the tongue or in the mouth of a patient.
In another series the test system is histamine. The following applies: cited from earlier work.
In a further series the test system is serotonin. The following applies: cited from earlier work.

Consider `CN1C[C@@H]2c3ccccc3Oc3ccc(Cl)cc3[C@H]2C1` (relative stereo) [trans-5-chloro-2-methyl-2,3,3a,12b-tetrahydro-1H-dibenz[2,3:6,7]oxepino[4,5-c]pyrrole], for which the Cardiotoxic effects entry in the series on human volunteers is listed as “serious cardiotoxic effects, e.g. postural hypotension and/or impairment of baroreceptor functioning, occurred”. For the same compound, the Cardiovascular side effects entry in series [1] was “substantially less cardiovascular side effects”. For the same compound, the Absorption entry in series [2] is “rapidly absorbed”. Moreover, the Antihistamine activity result with histamine was “antihistamine and antiserotonin activities”. Besides, the Antiserotonin activity result in the series on serotonin was “antihistamine and antiserotonin activities”.
